# Measured values taken from publication PMC8770581 (ChemMedChem, 2021).
# Entries after “also recorded” stand apart in the source; their conditions may differ. Like-named read-outs stand apart in the source and are kept apart here.
# Legend:
# α-syn fibrils [1] = biological target: T1, α-syn fibrils (Homo sapiens, UniProt P37840); conditions: read-out: Kd α-syn; fibril saturation binding; cited from earlier work
# Aβ fibrils [2] = biological target: T2, Aβ fibrils (Homo sapiens, UniProt P05067); conditions: read-out: Kd Aβ; fibril saturation binding; cited from earlier work
# T2 sequence (P05067 672-711): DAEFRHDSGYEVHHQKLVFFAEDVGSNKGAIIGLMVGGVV
# α-syn fibrils [3] = biological target: T1, α-syn fibrils; experiment: α-Synuclein fibril/ligand saturation binding assay; conditions: for selectivity for α-syn fibrils compared with amyloid-β (Aβ) and tau fibrils: abstract; for Selectivity α-syn v/s Aβ: from Kd Aβ and Kd α-syn
# Aβ (1–40) fibrils = Aβ (1–40) fibrils (Homo sapiens, UniProt P05067); experiment: Aβ fibril/ligand saturation binding assay
# Chain of Aβ (1–40) fibrils (P05067 672-711): as above
# [4] = biological target: tau fibrils (Tau-441, 2N4R) (Homo sapiens, UniProt P10636); experiment: Tau fibril/ligand saturation binding assay; conditions: for α-syn versus tau binding selectivity: from Kd tau and Kd α-syn
# Chain of tau fibrils (Tau-441, 2N4R) (P10636 1-441 isoform P10636-8): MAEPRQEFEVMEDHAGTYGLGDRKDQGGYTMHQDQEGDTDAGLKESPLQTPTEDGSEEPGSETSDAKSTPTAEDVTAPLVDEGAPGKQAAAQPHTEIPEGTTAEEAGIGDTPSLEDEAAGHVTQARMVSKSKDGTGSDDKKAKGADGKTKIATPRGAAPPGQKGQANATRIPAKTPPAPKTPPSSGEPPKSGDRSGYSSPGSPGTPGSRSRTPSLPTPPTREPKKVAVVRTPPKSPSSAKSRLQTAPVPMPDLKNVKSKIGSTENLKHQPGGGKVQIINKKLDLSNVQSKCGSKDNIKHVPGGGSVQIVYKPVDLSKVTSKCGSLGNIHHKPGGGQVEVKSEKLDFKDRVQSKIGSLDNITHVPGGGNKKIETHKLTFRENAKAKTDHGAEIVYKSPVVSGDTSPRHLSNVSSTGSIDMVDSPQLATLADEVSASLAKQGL
# [5] = Absorption/emission maxima and fluorescence quantum yield of free ligand in PBS; type: physicochemical; conditions: for Absmax / Emmax: free ligand in PBS
# α-syn fibrils [6] = biological target: T1, α-syn fibrils; experiment: Fluorescent properties of ligand-α-syn fibril complex; type: physicochemical
# Aβ fibrils [7] = biological target: T2, Aβ fibrils; experiment: Fluorescent properties of ligand-Aβ fibril complex; type: physicochemical
# [8] = biological target: Aβ plaques in human AD brain tissue (Homo sapiens, UniProt P05067); experiment: Fluorescent staining of human AD brain tissue sections; conditions: cortical sections, co-stained with antibody 4G8
# Chain of Aβ plaques in human AD brain tissue (P05067 672-711 limits assumed): as the sequence (P05067 672-711) above
# [9] = Kd α-syn, Table 1, synthetic α-syn fibrils 2.5 μM, 1 hour, mean ± SD (n = 3)
# [10] = Kd α-syn, Table 3 and text, α-syn fibrils, saturation binding, mean ± SD (n = 3)
Structure (SMILES),Kd (α-syn fibrils [3]; [9]),Kd (α-syn fibrils [3]; [10]),selectivity for α-syn fibrils compared with amyloid-β (Aβ) and tau fibrils (α-syn fibrils [3]),Selectivity α-syn v/s Aβ (α-syn fibrils [3]),Kd (Aβ (1–40) fibrils),Kd [4],α-syn versus tau binding selectivity [4],Fluorescence quantum yield Free ligand [5],Absmax [5],Emmax [5],Absmax Ligand + α-syn (α-syn fibrils [6]),Emmax Ligand + α-syn (α-syn fibrils [6]),Fluorescence quantum yield Ligand + α-syn (α-syn fibrils [6]),Absmax Ligand + Aβ (Aβ fibrils [7]),Emmax Ligand + Aβ (Aβ fibrils [7]),Fluorescence quantum yield Ligand + Aβ (Aβ fibrils [7]),"Kd (α-syn fibrils [3]; Kd α-syn (reported as no binding), α-syn fibrils, saturation binding)",Kd (α-syn fibrils [1]),Kd (Aβ fibrils [2]),labeling of Aβ pathology in AD brain sections [8]
CN(C)c1ccc(-c2cc(-c3ccnc(Br)c3)[nH]n2)cc1 [[^11C]MODAG-001],,,,,,,,,,,,,,,,,,0.6 ± 0.1 nM,20 ± 10 nM,
"COc1cc(/C=C/C=C2\Cc3ccccc3C2=O)ccc1O [compound 8, (E)-2-((E)-3-(4-Hydroxy-3-methoxyphenyl)allylidene)-2,3-dihydro-1H-inden-1-one]",9 ± 0.5 nM,9 ± 0.5 nM,greater than 10 x,15.6 x,140 ± 4.2 nM,388 ± 38.2 nM,43 x,0.0079,405,542,446,585,0.078,441,579,0.1363,,,,mostly dense core Aβ plaques in the ligand channel (column II) but not the finer aggregates composed of diffuse plaques; also recorded: highlights mostly dense core Aβ plaques
"CN(C)c1ccc(/C=C/C=C2\Cc3ccccc3C2=O)cc1 [compound 9, (E)-2-((E)-3-(4-(Dimethylamino)phenyl)allylidene)-2,3-dihydro-1H-inden-1-one]",38.4 ± 1.3 nM,38.4 ± 1.3 nM,,4.1 x,157 ± 5 nM,,,0.0059,450,589,462,610,0.0805,460,609,0.1465,,,,
"COc1cc(/C=C/C=C2C(=O)c3ccccc3C2=O)ccc1O [compound 20, (E)-2-(3-(4-Hydroxy-3-methoxyphenyl)allylidene)-1H-indene-1,3(2H)-dione]",44.5 ± 6.1 nM,44.5 ± 6.1 nM,,3.5 x,154 ± 11.8 nM,,,0.0061,402,572,440,603,0.0482,438,598,0.1419,,,,
"COc1cc(/C=C/C=C2\CCc3ccccc3C2=O)ccc1O [compound 23, (E)-2-((E)-3-(4-Hydroxy-3-methoxyphenyl)allylidene)-3,4-dihydronaphthalen-1(2H)-one]",85.1 ± 13.4 nM,85.1 ± 13.4 nM,,1.7 x,144 ± 13 nM,,,0.0051,401,549,447,587,0.0763,454,584,0.1890,,,,
"CN(C)c1ccc(/C=C/C=C2\CCc3ccccc3C2=O)cc1 [compound 24, (E)-2-((E)-3-(4-(Dimethylamino)phenyl)allylidene)-3,4-dihydronaphthalen-1(2H)-one]",97.6 ± 5.7 nM,97.6 ± 5.7 nM,,1.7 x,165 ± 7.1 nM,,,0.0063,397,565,452,582,0.0668,435,585,0.1377,,,,
"COc1cc(-c2ccc(/C=C/C=C3\Cc4ccccc4C3=O)cc2)ccc1O [compound 29, (E)-2-((E)-3-(4'-Hydroxy-3'-methoxy-[1,1'-biphenyl]-4-yl)allylidene)-2,3-dihydro-1H-inden-1-one]",66.7 ± 2 nM,,,0.8 x,52.5 ± 3.1 nM,,,0.0052,397,551,428,583,0.0766,424,574,0.1543,,,,
"O=C(O)c1ccc(-c2ccc(/C=C/C=C3\Cc4ccc(O)cc4C3=O)cc2)cc1 [compound 32, 4'-((E)-3-((E)-6-Hydroxy-1-oxo-1,3-dihydro-2H-inden-2-ylidene)prop-1-en-1-yl)-[1,1'-biphenyl]-4-carboxylic acid]",,18.8 ± 4 nM,greater than 10 x,,491 ± 58.9 nM,579 ± 30.6 nM,30.8 x,0.0104,392,563,448,586,0.1125,443,583,0.2498,,,,

# More lines, main results first:
Kd (α-syn fibrils [3]; [9]),Kd (α-syn fibrils [3]; [10]),selectivity for α-syn fibrils compared with amyloid-β (Aβ) and tau fibrils (α-syn fibrils [3]),Selectivity α-syn v/s Aβ (α-syn fibrils [3]),Kd (Aβ (1–40) fibrils),Kd [4],α-syn versus tau binding selectivity [4],Fluorescence quantum yield Free ligand [5],Absmax [5],Emmax [5],Absmax Ligand + α-syn (α-syn fibrils [6]),Emmax Ligand + α-syn (α-syn fibrils [6]),Fluorescence quantum yield Ligand + α-syn (α-syn fibrils [6]),Absmax Ligand + Aβ (Aβ fibrils [7]),Emmax Ligand + Aβ (Aβ fibrils [7]),Fluorescence quantum yield Ligand + Aβ (Aβ fibrils [7]),"Kd (α-syn fibrils [3]; Kd α-syn (reported as no binding), α-syn fibrils, saturation binding)",Structure (SMILES),Kd (α-syn fibrils [1]),Kd (Aβ fibrils [2]),labeling of Aβ pathology in AD brain sections [8]
74.2 ± 14.3 nM,74.2 ± 14.3 nM,,4.5 x,337 ± 11.7 nM,,,0.0097,414,556,425,601,0.0878,437,595,0.2058,,"O=C(O)c1ccc(-c2ccc(/C=C/C=C3C(=O)c4ccccc4C3=O)cc2)s1 [compound 35, (E)-5-(4-(3-(1,3-Dioxo-1,3-dihydro-2H-inden-2-ylidene)prop-1-en-1-yl)phenyl)thiophene-2-carboxylic acid]",,,
,,,,393 ± 64.4 nM,,,0.0063,431,524,,,,446,556,0.1074,,"O=C1/C(=C\c2ccc(-c3ccc(CO)cc3)s2)Cc2ccccc21 [compound 37, (Z)-2-((5-(4-(Hydroxymethyl)phenyl)thiophen-2-yl)methylene)-2,3-dihydro-1H-inden-1-one]",,,
93.1 ± 13.8 nM,93.1 ± 13.8 nM,,2.8 x,257 ± 20.3 nM,,,0.0031,403,575,439,589,0.0435,448,586,0.1377,,"COc1cc(-c2ccc(/C=C3/Cc4ccccc4C3=O)s2)ccc1O [compound 39, (Z)-2-((5-(4-Hydroxy-3-methoxyphenyl)thiophen-2-yl)methylene)-2,3-dihydro-1H-inden-1-one]",,,
92.9 ± 6.3 nM,92.9 ± 6.3 nM,,2.7 x,250 ± 37.1 nM,,,0.0050,387,547,465,572,0.0596,478,581,0.1130,,"COc1ncc(-c2ccc(/C=C3/Cc4ccccc4C3=O)s2)c(OC)n1 [compound 42, (Z)-2-((5-(2,4-Dimethoxypyrimidin-5-yl)thiophen-2-yl)methylene)-2,3-dihydro-1H-inden-1-one]",,,
> 2000 nM,,,,,,,,321,409,,,,,,,≥ 2000 nM,"O=C1C(=Cc2cc(-c3ccc(Br)cc3)no2)C(=O)c2ccccc21 [compound 56, 2-((3-(4-Bromophenyl)isoxazol-5-yl)methylene)-1H-indene-1,3(2H)-dione]",,,
656 ± 88 nM,,,,,,,,326,388,,,,,,,,"Cc1ccc2occ(/C=C3/Cc4ccc(O)cc4C3=O)c(=O)c2c1 [compound 57, (Z)-3-((6-Hydroxy-1-oxo-1,3-dihydro-2H-inden-2-ylidene)methyl)-6-methyl-4H-chromen-4-one]",,,
